Results published in PMC6271077, “Synthesis, Anticancer and Antibacterial Activity of Salinomycin N-Benzyl Amides” (Molecules, 2014).
≈ marks a conversion by molar mass, not a printed value. Read-outs that look alike come from different tables or passages of the source.

Assays:
[1] = tested on: LoVo/dx; assay: Antiproliferative SRB assay, LoVo/dx; format: cell-based, human; conditions: for IC50: Homo sapiens, LoVo/DX, 72 h, read-out: IC50 LoVo/dx; for IR LoVo/DX: IR = IC50 LoVo/dx / IC50 LoVo; for SI LoVo/DX: SI = IC50 BALB/3T3 / IC50 LoVo/dx
[2] = tested on: S. aureus ATCC 4163; assay: MIC microdilution; format: cell-based; conditions: Staphylococcus aureus
[3] = tested on: S. aureus ATCC 25923; assay: MIC microdilution; format: cell-based; conditions: Staphylococcus aureus
[4] = tested on: S. epidermidis ATCC 12228; assay: MIC microdilution; format: cell-based; conditions: Staphylococcus epidermidis
[5] = tested on: MRSA 452/11; assay: MIC microdilution, hospital MRSA; format: cell-based; conditions: Staphylococcus aureus
[6] = tested on: MRSA 456/11; assay: MIC microdilution, hospital MRSA; format: cell-based; conditions: Staphylococcus aureus
[7] = tested on: MRSA 522/12; assay: MIC microdilution, hospital MRSA; format: cell-based; conditions: Staphylococcus aureus
[8] = tested on: MRSA 537/12; assay: MIC microdilution, hospital MRSA; format: cell-based; conditions: Staphylococcus aureus
[9] = tested on: MRSA 572/12; assay: MIC microdilution, hospital MRSA; format: cell-based; conditions: Staphylococcus aureus
[10] = tested on: MRSA 585/12; assay: MIC microdilution, hospital MRSA; format: cell-based; conditions: Staphylococcus aureus
[11] = tested on: MRSE 459/11; assay: MIC microdilution, hospital MRSE; format: cell-based; conditions: Staphylococcus epidermidis
[12] = tested on: MRSE 461/11; assay: MIC microdilution, hospital MRSE; format: cell-based; conditions: Staphylococcus epidermidis
[13] = tested on: MRSE 467/11; assay: MIC microdilution, hospital MRSE; format: cell-based; conditions: Staphylococcus epidermidis
[14] = tested on: MRSE 469/11; assay: MIC microdilution, hospital MRSE; format: cell-based; conditions: Staphylococcus epidermidis
[15] = tested on: MRSE 470/11; assay: MIC microdilution, hospital MRSE; format: cell-based; conditions: Staphylococcus epidermidis
[16] = tested on: M. tuberculosis standard H37Rv strain; assay: Tuberculostatic activity, test-tube dilution; format: cell-based; conditions: Mycobacterium tuberculosis, read-out: MIC M. tuberculosis Standard H37Rv Strain
[17] = tested on: standard and "wild" strains of M. tuberculosis; assay: Tuberculostatic activity, all M. tuberculosis strains (overall); format: cell-based; conditions: Mycobacterium tuberculosis, H37RV, read-out: MIC (over M. tuberculosis strains)
[18] = ATCC4163, S. aureus ATCC 4163, 18 h, 35 °C, read-out: MIC
[19] = ATCC25923, S. aureus ATCC 25923, 18 h, 35 °C, read-out: MIC
[20] = ATCC12228, S. epidermidis ATCC 12228, 18 h, 35 °C, read-out: MIC
[21] = hospital MRSA strain 452/11, read-out: MIC
[22] = hospital MRSA strain 456/11, read-out: MIC
[23] = hospital MRSA strain 522/12, read-out: MIC
[24] = hospital MRSA strain 537/12, read-out: MIC
[25] = hospital MRSA strain 572/12, read-out: MIC
[26] = hospital MRSA strain 585/12, read-out: MIC
[27] = hospital MRSE strain 459/11, read-out: MIC
[28] = hospital MRSE strain 461/11, read-out: MIC
[29] = hospital MRSE strain 467/11, read-out: MIC
[30] = hospital MRSE strain 469/11, read-out: MIC
[31] = hospital MRSE strain 470/11, read-out: MIC

| SMILES | IC50 [1] [µM] | IR LoVo/DX [1] | SI LoVo/DX [1] | MIC [16] [µg/mL] | MIC [17] [µg/mL] | MIC [2, 18] [µg/mL] | MIC [3, 19] [µg/mL] | MIC [4, 20] [µg/mL] | MIC [5, 21] [µg/mL] | MIC [6, 22] [µg/mL] | MIC [7, 23] [µg/mL] | MIC [8, 24] [µg/mL] | MIC [9, 25] [µg/mL] | MIC [10, 26] [µg/mL] | MIC [11, 27] [µg/mL] | MIC [12, 28] [µg/mL] | MIC [13, 29] [µg/mL] | MIC [14, 30] [µg/mL] | MIC [15, 31] [µg/mL] | further results |
| --- | --- | --- | --- | --- | --- | --- | --- | --- | --- | --- | --- | --- | --- | --- | --- | --- | --- | --- | --- | --- |
| CC[C@@H](C(=O)[C@@H](C)[C@@H](O)[C@H](C)[C@@H]1O[C@@H]([C@@H](CC)C(=O)O)CC[C@@H]1C)[C@H]1O[C@]2(C=C[C@@H](O)[C@]3(CC[C@@](C)([C@H]4CC[C@](O)(CC)[C@H](C)O4)O3)O2)[C@H](C)C[C@@H]1C [SAL, Salinomycin] | 0.81 ± 0.32 | 1.72 | 16.07 | 25 (≈ 33.3 µM) | 25 to 50 (≈ 33.3 to 66.6 µM) | – | – | – | – | – | – | – | – | – | – | – | – | – | – | MIC ([2]; ATCC4163, 18 h): 2 µg/mL (≈ 2.66 µM); MIC ([3]; ATCC25923, 18 h): 2 µg/mL (≈ 2.66 µM); MIC ([4]; ATCC12228, 18 h): 2 µg/mL (≈ 2.66 µM); MIC ([5]; MRSA): 16 µg/mL (≈ 21.3 µM); MIC ([6]; MRSA): 16 µg/mL (≈ 21.3 µM); MIC ([7]; MRSA): 16 µg/mL (≈ 21.3 µM); MIC ([8]; MRSA): 16 µg/mL (≈ 21.3 µM); MIC ([9]; MRSA): 16 µg/mL (≈ 21.3 µM); MIC ([10]; MRSA): 16 µg/mL (≈ 21.3 µM); MIC ([11]; MRSE): 16 µg/mL (≈ 21.3 µM); MIC ([12]; MRSE): 16 µg/mL (≈ 21.3 µM); MIC ([13]; MRSE): 16 µg/mL (≈ 21.3 µM); MIC ([14]; MRSE): 16 µg/mL (≈ 21.3 µM); MIC ([15]; MRSE): 16 µg/mL (≈ 21.3 µM) |
| CC[C@H](C(=O)NCc1ccc([N+](=O)[O-])cc1)C1CC[C@H](C)C([C@@H](C)[C@H](O)[C@H](C)C(=O)[C@H](CC)C2O[C@]3(C=C[C@@H](O)C4(CC[C@@](C)(C5CC[C@](O)(CC)[C@H](C)O5)O4)O3)[C@H](C)C[C@@H]2C)O1 (stereo partly drawn) [NO2-p] | 20.4 ± 8.63 | 1.53 | 0.34 | 50 (≈ 56.5 µM) | 50 (≈ 56.5 µM) | 128 (≈ 145 µM) | 128 (≈ 145 µM) | 128 (≈ 145 µM) | 128 (≈ 145 µM) | 128 (≈ 145 µM) | 128 (≈ 145 µM) | 256 (≈ 289 µM) | 128 (≈ 145 µM) | 256 (≈ 289 µM) | 128 (≈ 145 µM) | 256 (≈ 289 µM) | 128 (≈ 145 µM) | 256 (≈ 289 µM) | 256 (≈ 289 µM) | – |
| CC[C@H](C(=O)NCc1ccc(F)cc1)C1CC[C@H](C)C([C@@H](C)[C@H](O)[C@H](C)C(=O)[C@H](CC)C2O[C@]3(C=C[C@@H](O)C4(CC[C@@](C)(C5CC[C@](O)(CC)[C@H](C)O5)O4)O3)[C@H](C)C[C@@H]2C)O1 (stereo partly drawn) [F-p] | 3.29 ± 0.91 | 0.53 | 2.62 | 50 (≈ 58.3 µM) | 50 (≈ 58.3 µM) | 32 (≈ 37.3 µM) | 32 (≈ 37.3 µM) | 16 (≈ 18.6 µM) | 16 (≈ 18.6 µM) | 16 (≈ 18.6 µM) | 32 (≈ 37.3 µM) | 32 (≈ 37.3 µM) | 32 (≈ 37.3 µM) | 32 (≈ 37.3 µM) | 32 (≈ 37.3 µM) | 32 (≈ 37.3 µM) | 64 (≈ 74.6 µM) | 64 (≈ 74.6 µM) | 32 (≈ 37.3 µM) | – |
